For 32 compounds, IC50 results are on record in patent publication US20100204224A1, “AZACYCLIC COMPOUNDS AS INHIBITORS OF SENSORY NEURONE SPECIFIC SODIUM CHANNELS” (priority 2005, published 2010).

In the first experiment the target is T1, human Nav1.8 (hNav1.8) ion channel (Homo sapiens, UniProt Q9Y5Y9).
T1 construct: expressed in transfected cells
T1 sequence (Q9Y5Y9 whole entry): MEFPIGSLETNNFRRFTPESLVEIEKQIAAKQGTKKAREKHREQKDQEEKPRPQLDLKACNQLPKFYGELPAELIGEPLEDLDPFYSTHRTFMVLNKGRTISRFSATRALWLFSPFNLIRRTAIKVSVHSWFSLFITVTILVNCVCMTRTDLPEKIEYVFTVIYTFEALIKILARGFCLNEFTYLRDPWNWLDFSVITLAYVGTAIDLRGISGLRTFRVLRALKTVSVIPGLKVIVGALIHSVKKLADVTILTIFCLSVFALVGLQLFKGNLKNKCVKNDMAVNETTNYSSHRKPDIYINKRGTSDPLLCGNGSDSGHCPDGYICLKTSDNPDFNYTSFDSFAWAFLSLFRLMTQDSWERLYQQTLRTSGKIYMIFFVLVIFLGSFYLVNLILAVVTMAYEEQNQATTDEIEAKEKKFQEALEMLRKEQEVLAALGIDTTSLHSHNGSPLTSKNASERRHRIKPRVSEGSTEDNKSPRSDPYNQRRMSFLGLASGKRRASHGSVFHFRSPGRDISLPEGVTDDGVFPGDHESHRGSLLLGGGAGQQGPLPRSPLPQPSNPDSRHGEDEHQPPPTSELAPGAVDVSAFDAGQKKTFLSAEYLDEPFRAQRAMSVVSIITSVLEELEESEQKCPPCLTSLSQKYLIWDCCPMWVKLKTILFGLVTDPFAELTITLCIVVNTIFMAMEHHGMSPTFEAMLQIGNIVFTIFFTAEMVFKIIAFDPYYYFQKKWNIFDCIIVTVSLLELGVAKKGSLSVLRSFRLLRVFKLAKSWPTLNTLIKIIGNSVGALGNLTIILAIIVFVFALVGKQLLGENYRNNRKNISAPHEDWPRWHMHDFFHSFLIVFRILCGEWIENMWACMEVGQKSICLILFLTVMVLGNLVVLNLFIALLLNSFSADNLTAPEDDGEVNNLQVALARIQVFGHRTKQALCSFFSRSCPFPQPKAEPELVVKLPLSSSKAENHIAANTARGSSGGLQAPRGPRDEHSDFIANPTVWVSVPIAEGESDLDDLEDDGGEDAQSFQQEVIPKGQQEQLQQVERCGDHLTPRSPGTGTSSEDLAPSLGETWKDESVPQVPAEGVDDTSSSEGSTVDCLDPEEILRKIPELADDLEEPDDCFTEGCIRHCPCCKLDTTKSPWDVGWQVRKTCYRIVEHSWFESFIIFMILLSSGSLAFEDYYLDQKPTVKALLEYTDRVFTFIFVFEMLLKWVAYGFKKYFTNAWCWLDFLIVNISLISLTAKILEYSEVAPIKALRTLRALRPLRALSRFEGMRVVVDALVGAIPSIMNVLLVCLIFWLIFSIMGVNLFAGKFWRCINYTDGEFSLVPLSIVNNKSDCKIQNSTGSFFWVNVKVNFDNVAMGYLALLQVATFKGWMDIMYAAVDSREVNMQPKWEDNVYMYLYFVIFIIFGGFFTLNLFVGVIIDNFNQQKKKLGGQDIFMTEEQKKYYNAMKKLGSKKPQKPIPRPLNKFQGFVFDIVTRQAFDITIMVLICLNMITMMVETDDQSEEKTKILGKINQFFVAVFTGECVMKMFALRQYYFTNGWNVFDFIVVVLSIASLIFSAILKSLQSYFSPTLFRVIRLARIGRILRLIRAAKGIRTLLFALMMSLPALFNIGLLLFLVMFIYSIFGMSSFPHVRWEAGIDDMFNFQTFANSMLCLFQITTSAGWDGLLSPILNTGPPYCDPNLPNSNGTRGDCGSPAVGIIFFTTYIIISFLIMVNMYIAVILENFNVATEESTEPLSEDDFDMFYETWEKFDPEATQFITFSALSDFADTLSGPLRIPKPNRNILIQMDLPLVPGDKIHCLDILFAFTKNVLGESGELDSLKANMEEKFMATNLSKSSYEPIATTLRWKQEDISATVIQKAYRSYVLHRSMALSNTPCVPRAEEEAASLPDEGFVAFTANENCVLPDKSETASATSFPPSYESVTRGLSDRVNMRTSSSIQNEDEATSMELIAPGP
Nature of the experiment: Inhibition of human Nav1.8 stably expressed in SH-SY-5Y cells (membrane potential dye fluorescence assay). Format: cell-based. Conditions: SH-SY-5Y hNav1.8 cells; FLIPR membrane potential dye; 10 μM pyrethroid, 250 nM TTX; test concentration range 100 μM-0.05 μM; read-out: hNav1.8 IC50.
In the case of `CC(c1ccc(F)cc1Cl)N1CC2CC1CN2C(=O)Nc1ccc(Oc2ccc(F)cc2)cc1` (centres unmarked) [Example 132, 5-[1-(2-Chloro-4-fluoro-phenyl)-ethyl]-2,5-diaza-bicyclo[2.2.1]heptane-2-carboxylic acid [4-(4-fluoro-phenoxy)-phenyl]-amide], the IC50 (as a rule, the concentration that gives 50% inhibition) worked out at 1.14 µM. Still for that read-out and setting: the figure for `CC(c1ccc(F)cc1Cl)N1CC2CC1CN2C(=O)Nc1ccc(Oc2ccc(F)cc2)cc1` (centres unmarked) [Example 133, 5-[1-(2-Chloro-4-fluoro-phenyl)-ethyl]-2,5-diaza-bicyclo[2.2.1]heptane-2-carboxylic acid [4-(4-fluoro-phenoxy)-phenyl]-amide] is 1.19 µM; for `O=C(c1ccc(C(F)(F)F)cc1)N1CC2CC1CN2C1CCc2ccccc2C1` (centres unmarked) [Example 137, [5-(1,2,3,4-Tetrahydro-naphthalen-2-yl)-2,5-diaza-bicyclo[2.2.1]hept-2-yl]-(4-trifluoromethyl-phenyl)-methanone] it is 23.2 µM. `O=C(c1ccc(C(F)(F)F)cc1)N1CC2CC1CN2C1CCc2ccc(F)cc2C1` (centres unmarked) [Example 138, [5-(7-Fluoro-1,2,3,4-tetrahydro-naphthalen-2-yl)-2,5-diaza-bicyclo[2.2.1]hept-2-yl]-(4-trifluoromethyl-phenyl)-methanone]: the IC50 was determined as 13.3 µM.

As for `Cc1ccc(Oc2ccc(NC(=O)N3CC4CC3CN4C(C)c3ccccc3Cl)cc2)cc1` (centres unmarked) [Example 139, 5-[1-(2-Chloro-phenyl)-ethyl]-2,5-diaza-bicyclo[2.2.1]heptane-2-carboxylic acid (4-p-tolyloxy-phenyl)-amide], the IC50 came out at 1.16 µM. Consider `Cc1ccc(Oc2ccc(NC(=O)N3CC4CC3CN4C(C)c3ccccc3Cl)cc2)cc1` (centres unmarked) [Example 140, 5-[1-(2-Chloro-phenyl)-ethyl]-2,5-diaza-bicyclo[2.2.1]heptane-2-carboxylic acid (4-p-tolyloxy-phenyl)-amide], for which the IC50 worked out at 1.23 µM. As for `O=C(Nc1ccc(Oc2ccccc2)cc1)N1CC2CC1CN2C1CCc2cccc(Cl)c21` (centres unmarked) [Example 141, 5-(7-Chloro-indan-1-yl)-2,5-diaza-bicyclo[2.2.1]heptane-2-carboxylic acid (4-phenoxy-phenyl)-amide], the IC50 was determined as 0.2 µM. Regarding `CC(c1ccccc1Cl)N1CC2CC1CN2C(=O)N(C)c1ccc(Oc2ccc(F)cc2)cc1` (centres unmarked) [Example 143, 5-[1-(2-Chloro-phenyl)-ethyl]-2,5-diaza-bicyclo[2.2.1]heptane-2-carboxylic acid [4-(4-fluoro-phenoxy)-phenyl]-methyl-amide], the IC50 is 3.21 µM. Still for that read-out and setting: the figure for `O=C(NCc1ccc(Oc2ccccc2)cc1)N1CC2CC1CN2C1Cc2ccc(F)cc2C1` (centres unmarked) [Example 145, 5-(5-Fluoro-indan-2-yl)-2,5-diaza-bicyclo[2.2.1]heptane-2-carboxylic acid 4-phenoxy-benzylamide] is 1.44 µM; for `O=C(NCc1ccc(Oc2ccc(F)cc2)cc1)N1CC2CC1CN2C1Cc2ccc(F)cc2C1` (centres unmarked) [Example 146, 5-(5-Fluoro-indan-2-yl)-2,5-diaza-bicyclo[2.2.1]heptane-2-carboxylic acid 4-(4-fluoro-phenoxy)-benzylamide] it is 1.28 µM; for `CC(c1ccccc1Cl)N1CC2CC1CN2C(=O)c1cc2ccccc2[nH]1` (centres unmarked) [Example 149, {5-[1-(2-Chloro-phenyl)-ethyl]-2,5-diaza-bicyclo[2.2.1]hept-2-yl}-(1H-indol-2-yl)-methanone] it is 5.84 µM.

Regarding `CC(c1ccccc1Cl)N1CC2CC1CN2C(=O)c1cc2cc(Cl)ccc2[nH]1` (centres unmarked) [Example 150, (5-Chloro-1H-indol-2-yl)-{5-[1-(2-chloro-phenyl)-ethyl]-2,5-diaza-bicyclo[2.2.1]hept-2-yl}-methanone], the IC50 was found to be 18.2 µM. Take `CC(c1ccccc1Cl)N1CC2CC1CN2C(=O)c1ccc(Oc2ccc(F)cc2)cc1` (centres unmarked) [Example 151, {5-[1-(2-Chloro-phenyl)-ethyl]-2,5-diaza-bicyclo[2.2.1]hept-2-yl}-[4-(4-fluoro-phenoxy)-phenyl]-methanone]: the IC50 amounted to 1.11 µM. In the case of `CC(c1ccccc1Cl)N1CC2CC1CN2C(=O)c1ccc(Oc2ccc(F)cc2)cc1` (centres unmarked) [Example 152, {5-[1-(2-Chloro-phenyl)-ethyl]-2,5-diaza-bicyclo[2.2.1]hept-2-yl}-[4-(4-fluoro-phenoxy)-phenyl]-methanone], the IC50 was 2.52 µM. As for `CC(c1ccccc1Br)N1CC2CC1CN2C(=O)c1ccc(Oc2ccccc2)cc1` (centres unmarked) [Example 159, {5-[1-(2-Bromo-phenyl)-ethyl]-2,5-diaza-bicyclo[2.2.1]hept-2-yl}-(4-phenoxy-phenyl)-methanone], the IC50 is 14.8 µM.

On to `CC(c1ccc(F)cc1Cl)N1CC2CC1CN2C(=O)c1ccc(Oc2ccc(F)cc2)cc1` (centres unmarked) [Example 163, {5-[1-(2-Chloro-4-fluoro-phenyl)-ethyl]-2,5-diaza-bicyclo[2.2.1]hept-2-yl}-[4-(4-fluoro-phenoxy)-phenyl]-methanone], for which the half-maximal inhibitory concentration (IC50) is 17.7 µM.

For the compound `CC(c1ccc(F)cc1Cl)N1CC2CC1CN2C(=O)c1ccc(Oc2ccc(F)cc2)cc1` (centres unmarked) [Example 164, {5-[1-(2-Chloro-4-fluoro-phenyl)-ethyl]-2,5-diaza-bicyclo[2.2.1]hept-2-yl}-[4-(4-fluoro-phenoxy)-phenyl]-methanone], the IC50 was 13.5 µM. Consider `CC(c1c(F)cccc1Cl)N1CC2CC1CN2C(=O)c1ccc(Oc2ccc(F)cc2)cc1` (centres unmarked) [Example 167, {5-[1-(2-Chloro-6-fluoro-phenyl)-ethyl]-2,5-diaza-bicyclo[2.2.1]hept-2-yl}-[4-(4-fluoro-phenoxy)-phenyl]-methanone], for which the IC50 came to 2.22 µM. On to `CC(c1c(F)cccc1Cl)N1CC2CC1CN2C(=O)c1ccc(Oc2ccc(F)cc2)cc1` (centres unmarked) [Example 168, {5-[1-(2-Chloro-6-fluoro-phenyl)-ethyl]-2,5-diaza-bicyclo[2.2.1]hept-2-yl}-[4-(4-fluoro-phenoxy)-phenyl]-methanone], for which the IC50 turned out to be 1.7 µM. In the case of `CC(c1ccccc1Cl)N1CC2CC1CN2C(=O)c1ccc(Oc2cccc(F)c2)cc1` (centres unmarked) [Example 169, {5-[1-(2-Chloro-phenyl)-ethyl]-2,5-diaza-bicyclo[2.2.1]hept-2-yl}-[4-(3-fluoro-phenoxy)-phenyl]-methanone], the IC50 was determined as 0.84 µM.

The experiment is the same for the next values; noted with them: hNav1.8 IC50, SH-SY-5Y hNav1.8 cells; FLIPR membrane potential dye; 10 μM pyrethroid, 250 nM TTX; test concentration range 100 μM-0.05 μM.
As to `O=C(Cc1ccc(Oc2ccccc2)cc1)N1CC2CC1CN2C1Cc2ccc(F)cc2C1` (centres unmarked) [Example 134, 1-[5-(5-Fluoro-indan-2-yl)-2,5-diaza-bicyclo[2.2.1]hept-2-yl]-2-(4-phenoxy-phenyl)-ethanone], the IC50 worked out at 1.6 µM. In turn, `CC(c1ccccc1Cl)N1CC2CC1CN2C(=O)Cc1ccc(Oc2ccc(F)cc2)cc1` (centres unmarked) [Example 135, 1-{5-[1-(2-Chloro-phenyl)-ethyl]-2,5-diaza-bicyclo[2.2.1]hept-2-yl}-2-[4-(4-fluoro-phenoxy)-phenyl]-ethanone] returned an IC50 of 0.94 µM.

Regarding `CC(c1ccccc1Cl)N1CC2CC1CN2C(=O)Cc1ccc(Oc2ccc(F)cc2)cc1` (centres unmarked) [Example 136, 1-{5-[1-(2-Chloro-phenyl)-ethyl]-2,5-diaza-bicyclo[2.2.1]hept-2-yl}-2-[4-(4-fluoro-phenoxy)-phenyl]-ethanone], the IC50 was 2.41 µM. As to `O=C(Cc1ccc(Oc2ccc(F)cc2)cc1)N1CC2CC1CN2C1CCc2ccccc2C1` (centres unmarked) [Example 142, 2-[4-(4-Fluoro-phenoxy)-phenyl]-1-[5-(1,2,3,4-tetrahydro-naphthalen-2-yl)-2,5-diaza-bicyclo[2.2.1]hept-2-yl]-ethanone], 0.28 µM corresponded to half-maximal inhibition (IC50). `O=C(Cc1ccc(Oc2ccc(F)cc2)cc1)N1CC2CC1CN2C1CCc2cc(F)ccc2C1` (centres unmarked) [Example 144, 2-[4-(4-Fluoro-phenoxy)-phenyl]-1-[5-(6-fluoro-1,2,3,4-tetrahydro-naphthalen-2-yl)-2,5-diaza-bicyclo[2.2.1]hept-2-yl]-ethanone] had an IC50 of 1.6 µM. For `O=C(Cc1ccc(C(F)(F)F)cc1)N1CC2CC1CN2C1CCc2ccccc2C1` (centres unmarked) [Example 147, 1-[5-(1,2,3,4-Tetrahydro-naphthalen-2-yl)-2,5-diaza-bicyclo[2.2.1]hept-2-yl]-2-(4-trifluoromethyl-phenyl)-ethanone], the IC50 came out at 3.1 µM. Turning to `O=C(Cc1ccc(C(F)(F)F)cc1)N1CC2CC1CN2C1CCc2ccc(F)cc2C1` (centres unmarked) [Example 148, 1-[5-(7-Fluoro-1,2,3,4-tetrahydro-naphthalen-2-yl)-2,5-diaza-bicyclo[2.2.1]hept-2-yl]-2-(4-trifluoromethyl-phenyl)-ethanone], the IC50 turned out to be 2.39 µM. The compound `CC(c1ccccc1Br)N1CC2CC1CN2C(=O)Cc1ccc(Oc2ccc(F)cc2)cc1` (centres unmarked) [Example 153, 1-{5-[1-(2-Bromo-phenyl)-ethyl]-2,5-diaza-bicyclo[2.2.1]hept-2-yl}-2-[4-(4-fluoro-phenoxy)-phenyl]-ethanone] gave an IC50 of 3.33 µM. As for `CC(c1ccccc1Br)N1CC2CC1CN2C(=O)Cc1ccc(Oc2ccc(F)cc2)cc1` (centres unmarked) [Example 154, 1-{5-[1-(2-Bromo-phenyl)-ethyl]-2,5-diaza-bicyclo[2.2.1]hept-2-yl}-2-[4-(4-fluoro-phenoxy)-phenyl]-ethanone], the midpoint of inhibition, the IC50, lay at 4.31 µM.

The compound `CC(c1ccc(Cl)cc1Cl)N1CC2CC1CN2C(=O)Cc1ccc(Oc2ccc(F)cc2)cc1` (centres unmarked) [Example 155, 1-{5-[1-(2,4-Dichloro-phenyl)-ethyl]-2,5-diaza-bicyclo[2.2.1]hept-2-yl}-2-[4-(4-fluoro-phenoxy)-phenyl]-ethanone] gave an IC50 of 18.2 µM. In turn, `CC(c1ccccc1Cl)N1CC2CC1CN2C(=O)Cc1ccc(Oc2cccc(F)c2)cc1` (centres unmarked) [Example 170, 1-{5-[1-(2-Chloro-phenyl)-ethyl]-2,5-diaza-bicyclo[2.2.1]hept-2-yl}-2-[4-(3-fluoro-phenoxy)-phenyl]-ethanone] had an IC50 of 1.57 µM. Take `Cc1ccccc1C(C)N1CC2CC1CN2C(=O)Cc1ccc(Oc2cccc(F)c2)cc1` (centres unmarked) [Example 171, 2-[4-(3-Fluoro-phenoxy)-phenyl]-1-[5-(1-o-tolyl-ethyl)-2,5-diaza-bicyclo[2.2.1]hept-2-yl]-ethanone]: the IC50 was 0.67 µM.
